Data set [1] has as its system un-induced Tet-On Aβ-GFP Flp-In 293 and SH-SY5Y cells. As to the kind of experiment: MTT cytotoxicity test, un-induced cells. Particulars: MTT, 24 hours; range over un-induced Flp-In 293 (FIG. 1A) and SH-SY5Y (FIG. 1B) cells. The class given is cell-based, human. The procedure:
(§1) This experiment was to test the toxicity of compounds (I-1), (I-2), (I-3), (I-4), and (I-5) to un-induced Tet-On Aβ-GFP Ftp-In 293 and SH-SY5Y cells. Un-induced Tet-On Aβ-GFP Flp-In 293 and SH-SY5Y cells were treated with compounds (I-1), (I-2), (I-3), (I-4), and (I-5) in different concentrations from 0.1 to 100 μM for 24 hours, followed by conducting MTT assay to test the cytotoxicity of the compounds. The experiment also tested the cytotoxicity of licochalcone A (0.1-100 μM) and curcumin (1-10 μM) to the un-induced Tet-On Aβ-GFP Flp-In 293 and SH-SY5Y cells. In the experiment, the relative cellular survival rate of untreated cells was 100%, the half maximal inhibitory concentration (IC50) of each compound was calculated by using interpolation, and the sample number of each group was n=3.
(Tetrazolium dyes change colour on reduction, which living cells bring about.)

Data set [2] concerns Aβ aggregation in Tet-On Aβ-GFP Flp-In 293 cells. As to the kind of experiment: Inhibition of abnormal β-amyloid aggregation test (GFP fluorescence, high-content analysis). Type of data set: cell-based, human. The conditions noted are these: for GFP fluorescence: untreated 100%. Here is the method: GFP fluorescence was used to reflect Aβ aggregation status as Aβ aggregated to cause the fused GFP misfolded, and thus cause the reduction of fluorescence on Aβ-GFP expressing cells. Inhibition of Aβ aggregation may improve GFP misfolding and lead to increased fluorescence on Aβ-GFP expressing cells. […] Then doxycycline (Dox) (2 μg/mL) was added to the cells for 64 hours to induce the Aβ-GFP expression, and GFP fluorescence was assessed by a high-content analysis (HCA) system (ImageXpressMICRO, available from Molecular Devices). The experiment also tested the inhibition effect of Aβ aggregation by curcumin (1-10 μM) and licochalcone A (0.001-100 μM). In the experiment, the amount of fluorescence measured in the untreated group (untreated with compounds) was 100%, and the sample number of each group was n=3.

In data set [3] the test system is Tet-On Aβ-GFP Flp-In 293 cells. As to the kind of experiment: Cytotoxicity of induced cells, propidium iodide staining and flow cytometer. Type of data set: cell-based, human. Particulars: induced cells, PI staining, flow cytometer (FIG. 3C). (In general: A flow cytometer gives signals particle by particle.)
The nature of data set [4]: MTT cytotoxicity test, un-induced cells. Type of data set: cell-based, human. Particulars: human. The procedure:
as §1

A short description of data set [5]: Solubility test in cell culture medium. Type of data set: physicochemical. Particulars: plasma or biological fluid, vortex mixing, centrifugation five minutes at 13,000 g, read-out: solubility in cell culture medium (completely soluble up to). Here is the method:
This experiment was to test the solubility of compound (I-1), compound (I-2), compound (I-3), compound (I-4), and compound (I-5) in cell culture medium. After vortex mixing and centrifugation for five minutes at 13,000 g, the compounds were completely soluble in the cell culture medium up to 100 μM.

The nature of data set [6]: Cytotoxicity of induced cells, propidium iodide staining and flow cytometer. Type of data set: cell-based, human. Particulars: human.
Where [7] appears, read: 0.001-1 μM, cell survival rate more than 80%.
Where [8] appears, read: 0.001-10 μM, cell survival rate more than 80%.

These results are taken from patent publication US10716768B2, “Method for treating abnormal B-amyloid aggregation mediated diseases” (NATIONAL TAIWAN NORMAL UNIVERSITY, priority 2016, dated 2020).

Each structure is given as a SMILES string.

For orientation: IC50 means the concentration that gives 50% inhibition. Read a high IC50 as a need for much substance. With `C=CC(C)(C)c1cc(/C=C/C(=O)c2ccc(O)cc2)c(OC)cc1O` [licochalcone A, reference compound], the results for the IC50 in data set [1] and in data set [3] were 47 to 51 µM and 62.3 µM, respectively. For the same compound, the GFP fluorescence in data set [2] (setting [7]) is 105-115%.
Compound `COc1cc(/C=C/C(=O)CC(=O)/C=C/c2ccc(O)c(OC)c2)ccc1O` [curcumin, reference compound] yielded a half-inhibitory concentration (IC50) at 24 h in data set [4] above 10 µM. In data set [2] (curcumin 2.5 μM and 5 μM), the cell number entry is given as “more than 80 % of untreated cells” and the GFP fluorescence is given as 107-120%.
Broadly, the solubility is the concentration that dissolves in the medium under given conditions. Take `COc1ccc(C(=O)/C=C/c2cc(Br)ccc2O)cc1` [Compound (I-1)]: the solubility in data set [5] was at least 100 µM. In addition, the IC50 at 24 h in data set [4] is 8 to 51 µM. Besides, in data set [2] (0.001-0.1 μM, cell survival rate more than 80%), the GFP fluorescence is reported as 103-111%. The compound further came in with an IC50 in data set [6] of 47.7 µM.
Take `COc1cccc(/C=C/C(=O)c2ccc(O)cc2)c1O` [Compound (I-4)]: the solubility in data set [5] was at least 100 µM. This compound returned an IC50 at 24 h in data set [4] of 45 to 71 µM. In addition, the GFP fluorescence in data set [2] (0.01-1 μM, cell survival rate more than 80%) was 102-105%. In data set [6], this compound registered an IC50 of 60.9 µM.
Take `Cc1ccc(/C=C/C(=O)c2c(O)c3ccccc3oc2=O)cc1` [Compound (I-3)]: the solubility in data set [5] is at least 100 µM. Besides, the IC50 at 24 h in data set [4] is at least 55 µM. In data set [2] (setting [8]), the GFP fluorescence is 103-117%. The same compound came in with an IC50 in data set [6] of 80.6 µM.
In the same order, the values of `O=C(c1ccccc1)c1cc2c(O)cccc2oc1=O` [Compound (I-5)] are at least 100 µM, above 100 µM, 107-125% and 95.1 µM.
Regarding `COc1ccc(O)c(/C=C/C(=O)c2ccccc2)c1` [Compound (I-2)], the solubility in data set [5] was at least 100 µM. In data set [4], this compound displayed an IC50 at 24 h of 10 to 51 µM. The GFP fluorescence in data set [2] (setting [7]) is 105-112%. For the same compound, it took 57.5 µM to reach half-maximal inhibition in data set [6] (IC50).
